Experimental data: PMC11175440, “Exploring hydrophilic 2,2-di(indol-3-yl)ethanamine derivatives against Leishmania infantum” (PLOS ONE, 2024)
Entries after “also recorded” stand apart in the source; their conditions may differ.

What was measured:
[1] = test system: L. infantum MHOM/TN/80/IPT1 promastigotes; assay: L. infantum promastigotes viability assay; assay type: cell-based; conditions: 72 h; for IC50: scalar dilutions from 20 to 0.31 μM, mean and 95% CI; for inhibition at 20 µM: single dose 20 μM, 26°C
Protocol: The reference strain L. infantum MHOM/TN/80/IPT1 (WHO international reference strain) was purchased from ATCC (ATCC® 50134™) and cultured in Evans’s Modified Tobie Medium (EMTM) at 26–28°C. During the treatment with bisindole derivative compounds, the parasites were maintained in RPMI-PY medium as described previously
The activity of bisindole derivatives was first evaluated on late log/stationary phase L. infantum promastigotes resuspended in 96-well plates (100 μL/well) in complete RPMI-PY medium with a density of 2.5×10^6 parasites/mL. The anti-parasitic activity was initially investigated with the single dose of 20 μM of each compound for 72 h at 26°C. […] As positive control, the anti-leishmanial drug miltefosine (Sigma-Aldrich, Milan, Italy) was included. Each condition was carried out in duplicate. The promastigotes viability was evaluated using the CellTiter 96H aqueous non-radioactive cell proliferation assay (Promega, Madison, Wisconsin, USA), as previously reported. The efficacy of selected compounds was evaluated by determining the IC50 values using the non-linear regression curves in GraphPad Prism 8.0 (GraphPad Software, Inc., San Diego, CA, USA). The equation used for data fitting was Y = 100/(1+10^((LogIC50-X)*HillSlope)) (hillslope not constrained), where X is equal to the log of concentration and Y is the normalized response.

[2] = Cytotoxicity assay on PMA-differentiated THP-1 macrophage-like cells; assay type: cell-based, human; conditions: human, PMA-differentiated THP-1 macrophage-like cells; 72 h, scalar dilutions from 100 to 3.12 μM; mean and 95% CI
Protocol: (§1) The human monocytic cell line THP-1 (ECACC 88081201) was cultured in RPMI-1640 medium supplemented with 10% heat-inactivated fetal bovine serum (FBS), 2 mM L-glutamine, 10 g/L non-essential amino acid, 1 mM sodium pyruvate, 100 μg/mL streptomycin, […]. Cells were maintained in a humidified incubator at 37°C and 5% CO2. All cell culture reagents were purchased from Sigma-Aldrich (St. Louis, MO, USA).
(§2) The cytotoxicity of bisindole derivative compounds was evaluated on THP-1 cells. Briefly, cells were resuspended at a density of 5×10^6 cells/mL, 100 μL/well were seeded in a 96-well plate and treated for 48 h with 20 ng/mL phorbol myristic acid (PMA) to induce differentiation into macrophages-like cells. After cell adhesion, selected compounds were used at 4, 20, and 100 μM, for 72 h at 37°C. […] Compounds with cytotoxicity higher than 20 μM were further tested to determine CC50 with scalar dilutions 1:2 or 2:3 (from 100 to 3.12 μM).
(§3) The negative control (not-treated cells) and the anti-leishmanial drug miltefosine were included in each experiment. Each condition was carried out in duplicate. To evaluate the cytotoxicity of the selected compounds, the CellTiter 96H Aqueous Non-Radioactive Cell Proliferation Assay (Promega) was performed as described above. For each compound, the SI was calculated as the ratio between cytotoxicity in THP-1 and activity against L. infantum promastigotes.

THP-1 cells = assay: as above; assay type: cell-based, human; conditions: CC50 in THP-1 / IC50 against L. infantum promastigotes
Protocol: as §1, §2, §3

[3] = test system: L. infantum intracellular amastigotes; assay: Anti-amastigote assay on infected THP-1 cells; assay type: cell-based; conditions: Leishmania infantum; THP-1 cells infected 24 h, 72 h treatment, 20 to 0.31 μM; read-out: IC50 against L. infantum intracellular amastigotes
Protocol: THP-1 cells were plated in a 96-well plate and differentiated as described above. […] Briefly, Leishmania cells were washed twice with PBS to remove any trace of serum and resuspended 1×10^7/mL PBS. […] Labeled parasites were washed three times with complete RPMI medium and used for the infection. […] To analyze the infection, cells were washed, formaldehyde/methanol fixed, stained with Hoechst dye, and observed with a fluorescence microscope. Images were acquired (at 5× magnification) at 494 nm excitation/521 nm emission (green) and 350 nm excitation/460 emission (blue) for CFSE and Hoechst staining, respectively. Automated cell counting of single-color images was performed with ImageJ software to monitor the infection: the promastigotes count on each green image was normalized with the cell count on the corresponding blue image. […] To calculate IC50, the percentage values of Leishmania cell count normalized to THP-1 cells were plotted against the log10 concentration (μM) of each compound.

infected THP-1 cells = assay: Cytotoxic effect on infected THP-1 cells (cell count, Hoechst staining); assay type: cell-based, human; conditions: 72 h, 1.25-20 μM
Protocol: THP-1 cells were plated in a 96-well plate and differentiated as described above. After differentiation, cells were infected with a parasite-to-cell ratio of 10:1 for 24 h with L. infantum MHOM/TN/80/IPT1 promastigotes previously stained with carboxyfluorescein succinimidyl ester (CFSE) dye (Invitrogen, Waltham, Massachusetts, USA) following manufacturer’s instructions. Briefly, Leishmania cells were washed twice with PBS to remove any trace of serum and resuspended 1×10^7/mL PBS. CFSE was then added at 5 μM final concentration, and promastigotes were incubated for 15 min at 37°C in the dark. The labeling was stopped by adding 4 volumes of cold complete media containing 10% serum and incubating in ice for 5 min. Labeled parasites were washed three times with complete RPMI medium and used for the infection. […] To analyze the infection, cells were washed, formaldehyde/methanol fixed, stained with Hoechst dye, and observed with a fluorescence microscope. Images were acquired (at 5× magnification) at 494 nm excitation/521 nm emission (green) and 350 nm excitation/460 emission (blue) for CFSE and Hoechst staining, respectively. Automated cell counting of single-color images was performed with ImageJ software to monitor the infection: the promastigotes count on each green image was normalized with the cell count on the corresponding blue image. The normalized value of infected non-treated cells was taken as 100%. To calculate IC50, the percentage values of Leishmania cell count normalized to THP-1 cells were plotted against the log10 concentration (μM) of each compound.
(B) The effect of treatment was monitored by counting the number of cells. Data are represented as mean ± SD. Two-way ANOVA; Dunnett’s multiple comparisons test; *adjusted p < 0.05, **adjusted p < 0.01.

[4] = test system: L. infantum (MHOM/MA/67/ITMAP-263) axenic amastigotes; assay: In vivo anti-amastigote activity in BALB/c mice infection model (limiting dilution parasite burden); conditions: all the organs (spleen, liver, bone marrow); miltefosine 10 mg/kg/day per os, 10 days
Protocol: (§4) The compound URB1483 was selected for the in vivo evaluation on a BALB/c mice infection model. Six- to seven-week-old BALB/c mice were purchased from Charles River Laboratories (Barcelona, Spain) or the I3S (Porto, Portugal) animal facility. Luciferase-expressing L. infantum (MHOM/MA/67/ITMAP-263) axenic amastigotes were cultured in complete cell-free medium MAA/20 [20] at 37°C with 5% CO2. Five-day-old cultures of amastigotes were washed twice with PBS and resuspended at a concentration of 1×10^9 parasites/Ml. A total of 17 mice were infected with 100 μL of parasite suspension containing 1×10^8 parasites. The injection was performed intra-venously (IV) in the tails of mice, and treatments started 21 days post-infection for 10 consecutive days. Formulation studies are reported in the Supporting Information (S1 Table in S1 File). […]
(§5) Mice well-being-assessment was checked every two days, in terms of weight control and the presence of stress signs. […] Spleen and liver were weighted, and bone marrow cells were counted with automatic cell counter EVE^TM (NanoEnTek, Seul, Korea). […] For bone marrow, the number of parasites was calculated per 10^5 cells using the formula: [(geometric mean of reciprocal titer from each triplicate/number of cells) × reciprocal fraction of the cells inoculated into the first well]. […]

[5] = Well-being, body weight and organ weight of infected and treated BALB/c mice; assay type: in vivo; conditions: miltefosine 10 mg/kg/day per os
Protocol: as §4, §5

| Structure (SMILES) | IC50 ([1]; Leishmania infantum) | inhibition at 20 µM ([1]; Leishmania infantum) | CC50 at 72 h [2] | SI (CC50/IC50) (THP-1 cells) | other results |
| --- | --- | --- | --- | --- | --- |
| Clc1ccc(CNCC(c2c[nH]c3cc(Br)ccc23)c2c[nH]c3cc(Br)ccc23)cc1 [2c] | 2.7 µM | 98.1% | 11.7 µM | 4.3 | IC50 [3]: 6.8 µM; cytotoxicity in the infection model (infected THP-1 cells): high cellular toxicity |
| NCC(c1c[nH]c2cc(F)ccc12)c1c[nH]c2cc(F)ccc12 [1b] | 8.6 µM | 89.1% | 40.4 µM | 4.7 | – |
| O=C(NCC(c1c[nH]c2cc(Br)ccc12)c1c[nH]c2cc(Br)ccc12)c1ccc(F)cc1 [3b] | 9.5 µM | 97.7% | 21.9 µM | 2.3 | – |
| CC(C)CNCC(c1c[nH]c2cc(Br)ccc12)c1c[nH]c2cc(Br)ccc12 [2a] | – | 97.8% | – | – | – |
| O=C(NCC(c1c[nH]c2cc(Br)ccc12)c1c[nH]c2cc(Br)ccc12)c1ccco1 [3f] | – | 97.2% | – | – | – |
| Cc1ccc(S(=O)(=O)NCC(c2cn(C)c3ccccc23)c2cn(C)c3ccccc23)cc1 [4b] | – | 45.7% | – | – | – |
| O=C(NCC(c1c[nH]c2cc(Br)ccc12)c1c[nH]c2cc(Br)ccc12)c1cccs1 [3g] | – | 96.9% | – | – | – |
| O=[N+]([O-])c1ccc(CNCC(c2c[nH]c3cc(Br)ccc23)c2c[nH]c3cc(Br)ccc23)cc1 [2d] | 3.9 µM | 95% | 13.2 µM | 3.4 | – |
| O=S(=O)(NCC(c1c[nH]c2cc(Br)ccc12)c1c[nH]c2cc(Br)ccc12)c1cccs1 [4c] | – | 97.6% | – | – | – |
| COC(=O)c1ccc2c(C(CN)c3c[nH]c4cc(C(=O)OC)ccc34)c[nH]c2c1 [1f] | 8.2 µM | 89.7% | 40.1 µM | 4.9 | – |
| NCC(c1c[nH]c2cc(Br)ccc12)c1c[nH]c2cc(Br)ccc12 [1d, 2,2-bis(6-bromo-1H-indol-3-yl)ethanamine] | – | 96.8% | – | – | – |
| CC(C)C(=O)NCC(c1c[nH]c2cc(Br)ccc12)c1c[nH]c2cc(Br)ccc12 [3a] | – | 96.7% | – | – | – |
| Cn1cc(C(CN)c2cn(C)c3cc(Br)ccc23)c2ccc(Br)cc21 [1i] | – | 98% | – | – | – |
| NCC(c1c[nH]c2cc(Cl)ccc12)c1c[nH]c2cc(Cl)ccc12 [1c] | 7.4 µM | 95.6% | 39.4 µM | 5.3 | – |
| Cn1cc(C(CN)c2cn(C)c3ccccc23)c2ccccc21 [1h] | 4.1 µM | 98% | 41.6 µM | 10.1 | IC50 [3]: 11.1 µM; cytotoxicity in the infection model (infected THP-1 cells): better toxicity profile than the commercial drug miltefosine; also recorded: better toxicity profile compared to the commercial drug miltefosine |
| Brc1ccc2c(C(CNCc3ccco3)c3c[nH]c4cc(Br)ccc34)c[nH]c2c1 [2f] | – | 95.2% | – | – | – |
| Cc1ccc(S(=O)(=O)NCC(c2c[nH]c3cc(Br)ccc23)c2c[nH]c3cc(Br)ccc23)cc1 [4a] | 9.8 µM | 96.9% | 20.2 µM | 2.1 | – |
| O=C(NCC(c1c[nH]c2cc(Br)ccc12)c1c[nH]c2cc(Br)ccc12)c1ccc(Cl)cc1 [3c] | – | 97.4% | – | – | – |
| N#Cc1ccc2[nH]cc(C(CN)c3c[nH]c4ccc(C#N)cc34)c2c1 [1g] | – | -1.6% | – | – | – |
| Cc1ccc(CNCC(c2c[nH]c3cc(Br)ccc23)c2c[nH]c3cc(Br)ccc23)cc1 [2e] | – | 95.8% | – | – | – |
| CCCCCCCCCCCCCCCCOP(=O)([O-])OCC[N+](C)(C)C [miltefosine, reference compound] | 3.6 µM | 96.7% | 36.7 µM | 10.2 | IC50 [3]: 1.8 µM; reduction of parasite burden [4]: more than 99.9%; spleen weight ([5]; after 10 days of treatment, versus non-treated infected group): significantly lower to the non-treated group; weight decrease ([5]; infected BALB/c mice, from the second treatment): 10% |
| COc1ccc(C(=O)NCC(c2c[nH]c3cc(Br)ccc23)c2c[nH]c3cc(Br)ccc23)cc1 [3e] | > 10 µM | 95.2% | – | – | IC50 [1]: 12.2 µM |
| NCC(c1c[nH]c2ccccc12)c1c[nH]c2ccccc12 [1a] | > 10 µM | 82.3% | – | – | IC50 [1]: 12.9 µM |
| O=C(NCC(c1c[nH]c2cc(Br)ccc12)c1c[nH]c2cc(Br)ccc12)c1ccc([N+](=O)[O-])cc1 [3d] | – | 90.4% | – | – | – |
| Brc1ccc2c(C(CNCc3cccs3)c3c[nH]c4cc(Br)ccc34)c[nH]c2c1 [2g] | – | 95.5% | – | – | – |
| Fc1ccc(CNCC(c2c[nH]c3cc(Br)ccc23)c2c[nH]c3cc(Br)ccc23)cc1 [2b] | – | 98.2% | – | – | – |
| NCC(c1c[nH]c2ccc(I)cc12)c1c[nH]c2ccc(I)cc12 [1e] | – | 97.8% | – | – | – |
